Experimental findings from patent publication US20160304970A1, “GENE BIOMARKER TO DIAGNOSE METASTIC LIVER CANCER AND METHODS FOR TARGETING THE SAME” (University of Southern California, priority 2015, published 2016) are described below.

Data set [1] has as its system TICs. Briefly: RNA sequencing of drug treated TICs. As to conditions: ATRA 5 μg/ml, 16 hours. Format: cell-based, mouse. How it is done: RNA sequencing samples were collected at 16 hours of treatment with ATRA (5 μg/ml), SAHA (0.5 μg/ml) or combination treatment. Total RNA for RNA sequencing was extracted using RNeasy Plus Mini Kit (Qiagen), which includes a DNA depletion column. DNase I treatment and rRNA depletion with Tibozero technology were performed before RNA sequencing. Sample quantity and quality was verified by spectrophotometry (NanoDrop 1000), fluorimetry (Qubit), and the Aglient Bioanalyzer 2100 profiler. RNA Integrity Number (RIN) values of >7.0 and OD260/280=2.0-2.2 were used for RNA-seq library preparation. Extracted RNA (1 μg) was used for RNA sequencing (Illumina HiSeq2500 system). Sequenced reads were cleaned according to a rigorous pre-processing workflow (Trimmomatic-0.32) before mapping them to the mouse genome (mm10) using SHRiMP2.2.3 (http://compbio.cs.toronto.edu/shrimp/). Cufflinks2.0.2 (cuffdiff2-Running Cuffdiff) was then used to perform differential expression analysis with a FDR cutoff of 0.05 (95% confidence interval). A Perl script was used after differential expression analysis to improve the readability of the results files. Quality control information was generated via Fastqc: www.bioinformatics.babraham.ac.uk/projects/fastqc/. […] All gene expression profiles were analyzed by Partek Flow, Ingenuity Pathway Analysis and Gene Set Enrichment Analysis.

Data set [2] has as its system TICs. Briefly: Annexin V-PI staining and caspase activity analysis. Format: cell-based. As to conditions: 6 and 12 hours; p<0.05. How it is done: Annexin V staining was performed according to the manufacturer's instructions (A35110, Invitrogen). In brief, after drug treatment, the cells were washed twice with ice-cold phosphate-buffered saline (PBS) and detached by trypsin/EDTA. The cells were then incubated with 5 μl of Annexin V-APC in a 100 μl of cell suspension at room temperature for 15 minutes. After incubation, the cells were mixed with propidium iodide solution and analyzed by flow cytometry.
The caspase activity assay was performed according to the manufacturer's instructions (G8090, G8200, and G8210, Promega). In brief, 10,000 cells were plated into each well of a 96-well plate. After the cells attached, the drugs (5 μg/ml of ATRA and 0.5 μg/ml of SAHA) were added to each well and incubated for 6, 12, 16, and 24 hours. After incubation, the Caspase-Glo® substrate reagent was added to each well followed by incubation for 30 minutes. After incubation, the luminescence signal was measured with a luminometer.

Data set [3] has as its system CD133 (+) Huh7 cells. Nature of the data set: Anchorage-independent growth assay in soft agar. Format: cell-based, human. As to conditions: retinoic acid 5 μg/ml, SAHA 0.5 μg/ml; 2 weeks. How it is done:
Freshly sorted CD133 (+)/(−) Huh7 cells were mixed with 0.35% agarose containing 1000 cells per well in culture medium with retinoic acid (5 μg/ml), SAHA (0.5 μg/ml), or a combination of both. After 2 weeks, the colony numbers were counted.

Data set [4] is described as follows: CD133 cell viability screening (luminescence, CellTiter-Glo). The format is cell-based. As to conditions: human, CD133 (−) Huh7 cells (freshly MACS-sorted). How it is done:
CD133(+) and CD133(−) Huh7 cells were freshly sorted using the MACS CD133 micro bead kit (Miltenyi Biotec, 130-050-801) and were seeded in 100 μl medium containing 5000 cells per well in a 96-well plate. Once the cells attached, the FDA approved drug library was added to each well to a final concentration of 20 μg/ml in duplicate. After incubation for 48 hours, the cell viability was determined by a luminescence assay. […] After 16 hours, 1 μl of a […] drug solution was individually added to the 96 wells, resulting in a 20 μg/ml final concentration for most compounds. After 48 hours, CellTiter-Glo® Reagent (G8233, Promega) was added and the luminescence signal was measured with an automated plate reader. The raw data for each well was background-corrected by DMSO control wells on the same plate.

The subject of data set [5] is CD133 (+) Huh7 cells. Nature of the data set: In vivo tumorigenicity, CD133 (+) Huh7 cells in NOG mice. More on the design: species or system mouse. How it is done: The TUNEL staining was performed according to the manufacturer's instructions (4810-30-K, TREVIGEN). In brief, paraffin-embedded tumor sections from each group were de-paraffinized, re-hydrated, and washed twice in PBS. Samples were covered with Proteinase K solution for 30 minutes at room temperature and then washed two times in deionized water. Slides were immersed in quenching solution for 5 minutes at room temperature and then washed in PBS. Slides were incubated in TdT labeling buffer for 5 minutes, immersed with labeling reaction mix, and incubated at 37° C. for 1 hour in a humidity chamber. Samples were immersed in TdT stop buffer for 5 minutes and then washed twice in deionized water for 5 minutes each at room temperature. Samples were covered with Strep-HRP solution and incubated for 10 minutes at 37° C. and washed twice in PBS. Samples were incubated in DAB solution for 5 minutes and then washed in deionized water several times. The samples were counterstained with Methyl Green and mounted on slides for observation.
CD133 was conjugated to the terminal amine functionality on a polyethylene glycol block of polylactide-polyethylene glycol (PLA-PEG) as previously described (Swaminathan et al., 2013). PLGA (30 mg) was dissolved in 1 ml chloroform containing ATRA (6 mg). An oil-in-water emulsion was formed by emulsifying the polymer drug solution in 6 ml of 2.5% w/v aqueous PVA solution by sonication (Sonicator®XL, Misonix, N.Y.) for 5 minutes in an ice bath. The PLA-PEG-CD133 conjugate was dissolved in chloroform (8 mg/100 μl) and added to the oil-in-water emulsion with stirring. The emulsion was stirred for 18 hours at ambient conditions followed by 2 hours under vacuum to remove residual chloroform. Nanoparticles were recovered by ultracentrifugation (35,000 rpm for 35 minutes at 4° C.; OptimaTMLE-80K, Beckman, Palo Alta, Calif.) and washed three times with deionized water to remove excess PVA and unencapsulated drugs. The nanoparticle suspension was then lyophilized (Labconco, FreeZone 4.5, Kansas City, Mo.). Before injection, the lyophilized nanoparticles were re-dissolved in PBS and filtered with a 0.22 micron filter.
A half million freshly sorted CD133 (+) TICs were suspended in 100 μl of Matrigel™ (BD) and injected subcutaneously into NOD/Shi-scid/IL-2Rγ^null(NOG) mice, six mice per group. After the tumor volume reached 100 mm^3, animals received one intravenous dose of CD133-conjugated RA nanoparticle (5 μg/ml) and SAHA (0.5 μg/ml) daily. The animals were monitored regularly for tumor growth and survival every day. All animals work was performed according to national and international guidelines. Animal studies were based on a protocol approved by the Institutional Animal Care and Use Committee at University of Southern California.

Where [6] appears, read: NOG mice, CD133 (+) Huh7 tumors.

As for `CC1=C(/C=C/C(C)=C/C=C/C(C)=C/C(=O)O)C(C)(C)CCC1` [ATRA, all-trans retinoic acid], the “genes differentially expressed from the controls” value in the data set on TICs [1] was found to be 189 genes. Further, in the data set on TICs [2], the “caspase-8 (extrinsic) and caspase-9 (intrinsic) pathway activity” value is given as “induced both”. The “reduction of colony numbers, anchorage independent growth in soft agar” value with CD133 (+) Huh7 cells [3] turned out to be 50%. Further, the viability (commonly a read-out of living cells in per cent, often relative to untreated cells) at 48 h, 20 μg/ml in data set [4] was 72%. Also, the tumor growth result with CD133 (+) Huh7 cells [5] (ATRA 5 μg/ml in CD133 antibody-conjugated nanoparticles, SAHA 0.5 μg/ml, after 4 days of treatment) is reported as “did not reduce or even promote tumor growth”. Further, in the data set with CD133 (+) Huh7 cells [5] (setting [6]), the “TUNEL staining of tumors” value is on record as “TUNEL-positive tumor cells”; the “tumor morphology, hematoxylin and eosin stained sections” value was “necrotic regions”.
